Experiments:
[1] = system: Sandhoff (Hexb^−/−) mice; test: Bar crossing test in Sandhoff (Hexb−/−) mice; format: in vivo, mouse; conditions: 12 and 13 weeks
Procedure: BALBc/NPC ^h and Sandhoff mice were bred as heterozygotes to generate affected mice (Npc1^−/−, Hexb^−/−) and controls (Npc^+/+, Hexb^+/+). The mice were housed under non-sterile conditions, with food and water available ad libitum. All experiments were conducted using protocols approved by the UK Home Office Animal Scientific Procedures Act, 1986.
ADLL and enantiomers (ADLL: Molekula #73891210, ALL: Sigma Aldrich #441511, ADL: Sigma #A0876) were administered as dry admix in powdered mouse diet (PicoLab Rodent Diet 20/5053, LabDiet) at a dose of 0.1 g/kg/day for in vivo studies. Treatment groups for in vivo study consisted of at least 5 mice per group. […]
The weight and activity of each mouse was recorded weekly until reaching the humane endpoint (defined as a loss of 1 g body weight within 24 h). Gait analysis was performed using CatWalk 10.5 system (Noldus) according to the manufacturer's instructions and five runs were recorded per animal at each time point. […] Motor function was measured using an accelerating NG Rota Rod for mice (Ugo Basile) starting from 1 rpm to 10 rpm, accelerating every 30 seconds by one rpm. […] Latency to cross or fall from the bar was scored, with 120 sec, maximum, to termination of each trial. […]

[2] = system: GM2 gangliosidosis patients; test: Observational case series in GM2 gangliosidosis patients; format: in vivo, human; conditions: three GM2 gangliosidosis patients
Procedure: Observational studies in GM2 gangliosidosis Patients: In a prospective observational case series in three patients with genetically proven GM2 gangliosidoses (2 patients with Tay-Sachs disease, 1 patient with Sandhoff disease) the symptomatic effects of ADLL was evaluated. Patients were treated with 0.1 g per kg body weight per day, for at least four weeks and the clinical effects determined using the Scale for the Assessment and Severity of Ataxia (SARA), the 8-meter walk test (8MWT) and the Montreal Cognitive Assessment (MoCA). Consent from all participants was obtained.
A patient with a genetically confirmed diagnosis of Tay-Sachs disease presented with dysarthrophonia, tremor, ataxia of stance and gait, paraparesis, and muscular atrophy. Prior to treatment, the patient required the support of both a caregiver on one side and a wall on the other in order to walk down a corridor. The patient was receiving sodium-valproate (500 mg/d), lithium (450 mg/d), and risperidone (3 mg/d) (medications for clinically diagnosed bipolar disorder), and continued to do so during treatment with N-Acetyl-DL-Leucine. The patient was also receiving physiotherapy, ergotherapy, and logotherapy twice a week.
A patient with a genetically confirmed diagnosis of Tay-Sachs disease presented with ataxia of stance and gait, fine motor impairment, paraparesis of lower extremities and muscular atrophy. They were receiving physiotherapy, ergotherapy and logotherapy and continued to do so during treatment with N-Acetyl-DL-Leucine.
A patient suffering from Sandhoff disease, with muscle hypotrophy, epileptic cramps (tonic-clonic, about 10 seconds, self-limiting), disordered ocular movement and anarthria. Their daily activities were very limited, being unable to eat, wash, or dress themself. They were receiving levetiracetam (1 g/d), lamotrigine (100 mg/d), omeprazole (20 mg/d), and miglustat (300 mg/d), in addition to physiotherapy, ergotherapy and logotherapy, and continued to do so during treatment with N-Acetyl-DL-Leucine.

[3] = 0.1 g per kg body weight per day, baseline vs one month on medication

CC(=O)NC(CC(C)C)C(=O)O (racemic) [ADLL, N-acetyl-DL-leucine]
Bar-crossing test performance [1]: significantly improved | improvement reported by patients and caregivers [2]: subjective improvement | mean improvement of the 8-M-Walking-Test (8MWT) [2, 3]: 17.8% | mean improvement of the Montreal Cognitive Assessment (MoCA) [2, 3]: 42% | mean improvement of the Scale for Assessment and Rating of Ataxia (SARA) [2, 3]: 20.3%
